Measured values as given in US3989835A, “Method of using 6-substituted amino phenyl-2,3,5,6-tetra-hydro[2,1-b]thiazoles for controlling gastrointestinal nematodes” (American Cyanamid Company, priority 1974, dated 1976).
Where “and” joins values, the source holds several entries; their conditions need not be identical. Identical values can stand only once. Counter-ions that a name gives are not always drawn. Like-named read-outs stand apart in the source and are kept apart here.

Legend:
[1] = tested on: whipworms; conditions: prior art compounds, especially in dogs; cited from earlier work
[2] = tested on: helminths; conditions: prior art compounds; cited from earlier work
[3] = tested on: Trichuris vulpis; assay: Oral or subcutaneous activity vs. mature Trichuris vulpis in dogs (critical test); assay type: in vivo
Procedure: (§1) Dogs infected with mature adult whipworms Trichuris vulpis were treated with various single or double doses of unsubstituted or substituted tetramisole analogs by the oral or subcutaneous route (Table XI hereinafter). Whipworms passed in the feces were collected for several days, and the whipworms still present determined at necropsy. Percent efficacy was determined in these "critical" tests. […] Trichuris is a type of nematode refactory to treatment with most prior anthelmintics at well tolerated doses. Taxonomically allied nematodes, e.g., Trichinella and Capillaria are also refractory to most anthelmintics.

[4] = in vivo; conditions: for Approx. LD50 /ED50: chemotherapeutic index, mouse oral, N. dubius; for LD50: mouse, in vivo, po; for Dead/Total: mice
Description: Data on the acute oral toxicity to mice of various single oral doses of the above compounds and several analogs were obtained by conventional procedures, (Table IX hereinafter).

[5] = tested on: Nematospiroides dubius; assay: Anthelmintic efficacy against N. dubius in mice, single oral dose; assay type: in vivo, Nematospiroides dubius (in albino female mice); conditions: for inhibition in vivo at 10 mg/kg: single oral dose 10 mg./Kg.; for inhibition in vivo at 5 mg/kg: single oral dose 5.0 mg./Kg.
Procedure: Albino female mice are each inoculated with about 20 infectious larvae of Nematospiroides dubius. This nematode is a representative of the economical important trichostrongylis worms of ruminants and other hosts, and of nematodes in general. Twenty-two days after inoculation, groups of four randomly selected mice containing adult N. dubius are given single oral doses of test compounds dissolved or suspended in 0.4 ml. of water per 20 gram mouse. At 26 or 27 days after inoculation, treated mice and in each test four randomly selected groups of untreated mice are necropsied. The number of worms in the small intestine of each mouse are determined by microscopic examination. Average worm numbers for each treated group and for the untreated controls are computed and the percent efficacy determined by the customary formula:
(Average Worms in Control - Average Worms in Treated)/(Average Worms in Control) X 100.

[6] = in vivo; conditions: dog
Procedure: as §1

[7] = tested on: helminths; assay: Activity against helminths (general statement); conditions: in vivo
[8] = Approx. LD50, mouse oral, Table IX
[9] = LD50, mice, adjusted to molar equivalents of tetramisole free base
[10] = oral 5 Mg./Kg., based on total worms in all dogs
[11] = Heligmosomoides polygyrus, po, as Base, single oral dose, mice, > indicates inactive at dose shown, read-out: Approx. ED50
[12] = Heligmosomoides polygyrus, po, mouse oral, Table IX, read-out: Approx. ED50 vs. N. dubius
[13] = Heligmosomoides polygyrus, po, single oral dose 4.0 mg./Kg., molar-adjusted, read-out: Percent Nematospiroides Activity
[14] = Heligmosomoides polygyrus, po, molar-adjusted, read-out: Percent Nematospiroides Activity
[15] = single oral dose 10 mg./kg., N. dubius, mice
[16] = Heligmosomoides polygyrus, po, single oral dose 1.25 mg./Kg., molar-adjusted, read-out: Percent Nematospiroides Activity
[17] = Heligmosomoides polygyrus, po, single oral dose 2.0 mg./Kg., molar-adjusted, read-out: Percent Nematospiroides Activity

In the case of `c1ccc(C2CN3CCSC3=N2)cc1` (stereo not drawn) [l H, l-6-phenyl-2,3,5,6,-tetrahydroimidazo[2,1-b]thiazole, reference compound], the “activity against whipworms in words” value [1] is given as “not sufficiently active against whipworms, especially in dogs”, the “activity against helminths in words” value [2] is given as “highly effective against most helminths” and the “% Efficacy SC” value ([3]; SC 5 Mg./Kg.) is given as 8%. The “% Efficacy SC” value ([3]; SC 10 Mg./Kg.) was 50%, the “% Efficacy SC” value ([3]; SC 15 Mg./Kg.) was 43% and the “% Efficacy SC” value ([3]; SC 20 Mg./Kg.) was 100%.
For `O=CNc1cccc(C2CN3CCSC3=N2)c1` (racemic) [m-NH--HCO dl, 3'-(2,3,5,6-Tetrahydroimidazo[2,1-b-]thiazol-6-yl)-formanilide], the “Approx. LD50 /ED50” value ([4]; Table IX) was 10, the LD50 [4, 8] was 30 mg/kg and the LD50 [4, 9] was roughly 30 mg/kg. The Dead/Total ([4]; single oral dose 4-5 Mg./Kg.) was 0/8, the Dead/Total ([4]; single oral dose 10 Mg./Kg.) was 0/4 and the Dead/Total ([4]; single oral dose 20 Mg./Kg.) was 1/10. The Dead/Total ([4]; single oral dose 40 Mg./Kg.) was 12/13, the “% Efficacy Orally” value ([3]; oral 1.25 Mg./Kg.) was 21% and the “% Efficacy Orally” value ([3]; oral 2.5 Mg./Kg.) was 83%. For the same molecule, the “% Efficacy Orally” value [3, 10] was 100%, the ED50 [5, 11] was 3 mg/kg and the ED50 [5, 12] was 3 mg/kg. The inhibition in vivo at 4 mg/kg [5, 13] was 79%, the inhibition in vivo at 10 mg/kg [5, 14] was 97% and the MTD ([6]; po) was 7.5 mg/kg. The MTD ([6]; sc) was greater than 5 mg/kg.
In the case of `c1ccc(C2CN3CCSC3=N2)cc1` (racemic) [dl-tetramisole, dl-6-phenyl-2,3,5,6-tetrahydroimidazo[2,1-b]thiazole, reference compound], the “activity against whipworms in words” value [1] is given as “not sufficiently active against whipworms, especially in dogs”, the “activity against helminths in words” value [2] is given as “highly effective against most helminths” and the “oral dose at which inactive (% Efficacy Orally column)” value ([3]; > means inactive at dose shown, oral) is given as greater than 10 mg/kg. For the same molecule, the “% Efficacy SC” value ([3]; SC 10 Mg./Kg., listed as dl H) was 2%, the ED50 ([5]; Heligmosomoides polygyrus, read-out: ED50 (approximate dose which removes 50% of the worms), N. dubius in mice, single oral dose) was roughly 9 mg/kg and the ED50 ([5]; Heligmosomoides polygyrus, as Base, single oral dose, mice, > indicates inactive at dose shown, read-out: Approx. ED50) was 9 mg/kg. For the same molecule, the ED50 ([5]; Heligmosomoides polygyrus, mouse oral, Table IX, read-out: Approx. ED50 vs. N. dubius) was 9 mg/kg, the “Average % Efficacy” value ([5]; single oral dose 6 mg./kg.) was 7% and the “% Efficacy per Group” value ([5]; single oral dose 8 mg./kg.) was 28% and 33% and 39%. For the same molecule, the “Average % Efficacy” value ([5]; single oral dose 8 mg./kg.) was 33%, the “Average % Efficacy” value [5, 15] was 70% and the “% Efficacy per Group” value ([5]; single oral dose 12 mg./kg.) was 60% and 62% and 68% and 73%. The “Average % Efficacy” value ([5]; single oral dose 12 mg./kg.) was 66%, the “% Efficacy per Group” value ([5]; single oral dose 16 mg./kg.) was 74% and 91% and 92% and 94% and the “Average % Efficacy” value ([5]; single oral dose 16 mg./kg.) was 88%. The “% Efficacy per Group” value ([5]; single oral dose 20 mg./kg.) was 96% and 98% and 99% and 100% and the “Average % Efficacy” value ([5]; single oral dose 20 mg./kg.) was 98%.
With `O=CNc1cccc(C2CN3CCSC3=N2)c1` (stereo not drawn) [HNCHO l-] the LD50 [4, 9] was roughly 30 mg/kg, the “% Efficacy Orally” value ([3]; oral 1.25 Mg./Kg.) was 46% and the “% Efficacy Orally” value ([3]; oral 2.5 Mg./Kg.) was 100%. It also gave an inhibition in vivo at 1.25 mg/kg [5, 16] of 61%, an inhibition in vivo at 2 mg/kg [5, 17] of 72% and an inhibition in vivo at 5 mg/kg [5, 14] of 95%. The inhibition in vivo at 10 mg/kg [5, 14] was 100% and the MTD ([6]; po) was 2.5 mg/kg.
For `Cl.Cl.Nc1cccc(C2CN3CCSC3=N2)c1` (racemic) [dl-m-aminotetramisole, 6-(m-Aminophenyl)-2,3,5,6-tetrahydroimidazo[2,1-b]thiazole Dihydrochloride], the “Approx. LD50 /ED50” value ([4]; Table IX) was 15, the LD50 [4, 8] was 15 mg/kg and the LD50 [4, 9] was roughly 20 mg/kg. For the same molecule, the Dead/Total ([4]; single oral dose 4-5 Mg./Kg.) was 0/8, the Dead/Total ([4]; single oral dose 10 Mg./Kg.) was 2/29 and the Dead/Total ([4]; single oral dose 15 Mg./Kg.) was 7/14. For the same molecule, the Dead/Total ([4]; single oral dose 20 Mg./Kg.) was 10/12, the Dead/Total ([4]; single oral dose 40 Mg./Kg.) was 4/4 and the “% Efficacy SC” value ([3]; SC 2.5 Mg./Kg.) was 92%. The “% Efficacy SC” value ([3]; SC 5 Mg./Kg.) was 100%, the “% Efficacy Orally” value ([3]; oral 2.5 Mg./Kg.) was 99% and the “% Efficacy Orally” value [3, 10] was 98%. The ED50 [5, 11] was 1 mg/kg, the ED50 [5, 12] was 1 mg/kg and the ED50 ([5]; Heligmosomoides polygyrus, po, read-out: ED50 (approximate dose which removes 50% of the worms), N. dubius in mice, single oral dose) was roughly 1 mg/kg. The inhibition in vivo at 1.25 mg/kg [5, 16] was 57%, the inhibition in vivo at 2 mg/kg [5, 17] was 92% and the inhibition in vivo at 4 mg/kg [5, 13] was 100%. The inhibition in vivo at 5 mg/kg [5, 14] was 100%, the inhibition in vivo at 10 mg/kg [5, 14] was 100% and the “superiority over tetramisole at dose required to attain 85 - 88% efficacy” value ([5]; N. dubius in mice) was “approximately eightfold superiority”. For the same molecule, the activity in words ([5]; N. dubius in mice, oral) was “unusually high activity”, the “activity relative to tetramisole” value ([5]; from ED50s against N. dubius in mice) was “approximately nine times as active as tetramisole” and the activity in words ([5]; single dose oral ED50 against N. dubius in mice) was “unexpected high activity”. The “Average % Efficacy” value ([5]; single oral dose 0.5 mg./kg.) was 5%, the “% Efficacy per Group” value ([5]; single oral dose 0.5 mg./kg., Dihydrochloride) was 2% and 6% and 8% and the “Average % Efficacy” value ([5]; single oral dose 1.00 mg./kg.) was 50%. The “Average % Efficacy” value ([5]; single oral dose 1.25 mg./kg.) was 81%, the “% Efficacy per Group” value ([5]; single oral dose 1.25 mg./kg., Dihydrochloride) was 80% and 82% and the “Average % Efficacy” value ([5]; single oral dose 2.0 mg./kg.) was 85%. For the same molecule, the “% Efficacy per Group” value ([5]; single oral dose 2.0 mg./kg., Dihydrochloride) was 77% and 78% and 82% and 83% and 88% and 92% and 98%, the “% Efficacy per Group” value ([5]; single oral dose 4 mg./kg.) was 100% and the “Average % Efficacy” value ([5]; single oral dose 4 mg./kg.) was 100%. For the same molecule, the “% Efficacy per Group” value ([5]; single oral dose 5 mg./kg.) was 100%, the “Average % Efficacy” value ([5]; single oral dose 5 mg./kg.) was 100% and the “% Efficacy per Group” value [5, 15] was 100%. The “Average % Efficacy” value [5, 15] was 100%, the MTD ([6]; po) was 7.5 mg/kg and the MTD ([6]; sc) was 5 mg/kg.
In the case of `CNc1cccc(C2CN3CCSC3=N2)c1.Cl.Cl` (stereo not drawn) [m-NH--CH3 dl, 2,3,5,6-Tetrahydro-6-(m-methylaminophenyl)imidazo[2,1-b]thiazole Dihydrochloride], the “Approx. LD50 /ED50” value ([4]; Table IX) is reported as 14, the LD50 [4, 8] is reported as 100 mg/kg and the Dead/Total ([4]; single oral dose 20 Mg./Kg.) is reported as 0/4. The Dead/Total ([4]; single oral dose 50 Mg./Kg.) was 0/4, the Dead/Total ([4]; single oral dose 100 Mg./Kg.) was 2/5 and the “% Efficacy SC” value ([3]; SC 2.5 Mg./Kg.) was 29%. The “% Efficacy SC” value ([3]; SC 5 Mg./Kg.) was 94%, the “% Efficacy Orally” value [3, 10] was 100% and the ED50 [5, 11] was 7 mg/kg. It also gave an ED50 [5, 12] of 7 mg/kg, an inhibition in vivo at 2 mg/kg [5, 17] of 28% and an inhibition in vivo at 10 mg/kg [5, 14] of 66%. The inhibition in vivo at 20 mg/kg ([5]; Heligmosomoides polygyrus, po, single oral dose 20 mg./Kg., molar-adjusted, read-out: Percent Nematospiroides Activity) was 100%, the inhibition in vivo at 30 mg/kg ([5]; Heligmosomoides polygyrus, po, single oral dose 30 mg./Kg., molar-adjusted, read-out: Percent Nematospiroides Activity) was 100% and the MTD ([6]; po) was greater than 10 mg/kg. It also gave an MTD ([6]; sc) of 30 mg/kg.
In the case of `Nc1cccc(C2CN3CCSC3=N2)c1` (stereo not drawn) [m-NH2 l, l-6-(m-Aminophenyl)-2,3,5,6-tetrahydroimidazo[2,1-b]thiazoleDihydrochloride], the “Approx. LD50 /ED50” value ([4]; Table IX) is reported as 20, the LD50 [4, 8] is reported as 15 mg/kg and the LD50 [4, 9] is reported as roughly 15 mg/kg. The Dead/Total ([4]; single oral dose 4-5 Mg./Kg.) was 0/12, the Dead/Total ([4]; single oral dose 10 Mg./Kg.) was 2/10 and the Dead/Total ([4]; single oral dose 15 Mg./Kg.) was 3/9. The Dead/Total ([4]; single oral dose 20 Mg./Kg.) was 4/5, the “% Efficacy SC” value ([3]; SC 1.25 Mg./Kg.) was 72% and the “% Efficacy SC” value ([3]; SC 2.5 Mg./Kg.) was 100%. The “% Efficacy Orally” value ([3]; oral 1.25 Mg./Kg.) was 94%, the “% Efficacy Orally” value ([3]; oral 2.5 Mg./Kg.) was 100% and the “% Efficacy Orally” value [3, 10] was 100%. For the same molecule, the ED50 [5, 12] was 0.75 mg/kg, the “Percent Nematospiroides Activity” value ([5]; single oral dose 1.25 mg./Kg., molar-adjusted) was 59% and the “Percent Nematospiroides Activity” value ([5]; single oral dose 2.0 mg./Kg., molar-adjusted) was 88%. For the same molecule, the “Percent Nematospiroides Activity” value ([5]; single oral dose 4.0 mg./Kg., molar-adjusted) was 98%, the MTD ([6]; po) was 10 mg/kg and the MTD ([6]; sc) was 4 mg/kg. For the same molecule, the “activity relative to the dl compound” value [7] was “almost twice as active as the dl compound”.
